Measured values: the supplement of paper PMC13380429

How the values were obtained:
Conditions in all cases: 72 h
Calu-3 [1] = assay: relative viability EC50 (midpoint between 100% and the lowest measured viability); higher = less toxic
Vero E6 [2] = assay: as above
U2OS [3] = assay: as above
HepG2 [4] = assay: as above
Calu-3 [5] = assay: drug sensitivity score (DSS) for viability; higher = more toxic; extreme values may be limits of the assay
Vero E6 [6] = assay: as above
U2OS [7] = assay: as above
HepG2 [8] = assay: as above
Caco-2 [9] = assay: as above
Calu-3 [10] = assay: cell viability relative to DMSO; higher = less toxic
Vero E6 [11] = assay: as above
U2OS [12] = assay: as above
HepG2 [13] = assay: as above
Caco-2 [14] = assay: as above
Caco-2 [15] = assay: relative viability EC50 (midpoint between 100% and the lowest measured viability); higher = less toxic

SMILES	relative viability EC50 (Calu-3 [1])	relative viability EC50 (Vero E6 [2])	relative viability EC50 (U2OS [3])	relative viability EC50 (HepG2 [4])	drug sensitivity score (Calu-3 [5])	drug sensitivity score (Vero E6 [6])	drug sensitivity score (U2OS [7])	drug sensitivity score (HepG2 [8])	drug sensitivity score (Caco-2 [9])	cell viability (Calu-3 [10]; 1 nM)	cell viability (Calu-3 [10]; 10 nM)	cell viability (Calu-3 [10]; 100 nM)	cell viability (Calu-3 [10]; 1000 nM)	cell viability (Calu-3 [10]; 10000 nM)	cell viability (Vero E6 [11]; 1 nM)	cell viability (Vero E6 [11]; 10 nM)	cell viability (Vero E6 [11]; 100 nM)	cell viability (Vero E6 [11]; 1000 nM)	cell viability (Vero E6 [11]; 10000 nM)	cell viability (U2OS [12]; 1 nM)	cell viability (U2OS [12]; 10 nM)	cell viability (U2OS [12]; 100 nM)	cell viability (U2OS [12]; 1000 nM)	cell viability (U2OS [12]; 10000 nM)	cell viability (HepG2 [13]; 1 nM)	cell viability (HepG2 [13]; 10 nM)	cell viability (HepG2 [13]; 100 nM)	cell viability (HepG2 [13]; 1000 nM)	cell viability (HepG2 [13]; 10000 nM)	cell viability (Caco-2 [14]; 1 nM)	cell viability (Caco-2 [14]; 10 nM)	cell viability (Caco-2 [14]; 100 nM)	cell viability (Caco-2 [14]; 1000 nM)	cell viability (Caco-2 [14]; 10000 nM)	relative viability EC50 (Caco-2 [15])
O=C(Nc1ccc(C(O)(C(F)(F)F)C(F)(F)F)cc1)c1ccc(C(F)(F)F)cc1 [SR-1078]	1.93 µM	> 10 µM	> 10 µM	> 10 µM	4.1	0	0	0	2.3	109%	105%	118%	91.7%	48.6%	100%	100%	99.6%	97.6%	95.6%	105%	107%	102%	102%	93.2%	114%	99.9%	101%	99%	112%	104%	99.6%	95.4%	99.7%	56.4%	
Nc1[nH]cnc2ncnc1-2 [adenine]	> 10 µM	> 10 µM	> 10 µM	> 10 µM	0	0	0	0	0	91.3%	93.3%	112%	108%	90.7%	104%	103%	101%	91.7%	98.2%	93.8%	103%	98.4%	99.5%	110%	77.5%	98.7%	92.8%	92.5%	93.2%	91.8%	95.9%	104%	88.5%	114%	> 10 µM
CCc1ccc(Cc2ccc3c(c2)[C@]2(OC3)O[C@H](CO)[C@@H](O)[C@H](O)[C@H]2O)cc1 [tofogliflozin]	> 10 µM	> 10 µM	> 10 µM	> 10 µM	0	0	0	0	0	90.9%	92.7%	108%	103%	108%	93.9%	95.6%	99.4%	94.6%	98.4%	97.9%	96.9%	97.5%	98%	95.5%	106%	94.3%	102%	105%	95.5%	97.8%	98.5%	86.1%	97%	90.5%	> 10 µM
CC[C@@H](CO)NC(=O)[C@@H]1C=C2c3cccc4c3c(cn4C)C[C@H]2N(C)C1 [methysergide]	> 10 µM	> 10 µM	> 10 µM	> 10 µM	0	0	0	0	0	88.7%	99.1%	102%	97%	102%	96%	100%	91.9%	99.7%	111%	101%	96.1%	100%	92.3%	98.7%	94.8%	96.9%	102%	102%	111%	95.9%	89.6%	100%	94.3%	110%	> 10 µM
O=C(CCCl)NCCc1ccccc1 [fenaclon]	> 10 µM	> 10 µM	> 10 µM	> 10 µM	0	0	0	0	0	105%	99.1%	97.4%	96%	88.3%	104%	105%	100%	103%	91.3%	101%	96.9%	100%	92.6%	103%	104%	111%	99.3%	119%	96.2%	81.8%	126%	93.7%	84.5%	109%	> 10 µM
Cc1ccc(S(=O)(=O)c2ccc([N+](=O)[O-])o2)cc1	2.33 µM	3.06 µM	1.47 µM	2.09 µM	7.2	5.8	9.6	7.8	7.6	98%	89.7%	101%	89.9%	0%	94.6%	99.1%	97.9%	98.5%	-0.1%	97.5%	95.1%	109%	72.4%	0%	84.3%	100%	102%	86.7%	0%	97.1%	96.6%	105%	87.6%	0%	2.16 µM
Oc1ccc2c3c1O[C@H]1c4oc5ccccc5c4C[C@@]4(O)[C@@H](C2)N(CC2CC2)CC[C@]314 [naltriben]	> 10 µM	> 10 µM	> 10 µM	> 10 µM	0	0	0	0	0.3	105%	85.1%	105%	87.7%	99.5%	90.9%	101%	93.3%	96.4%	108%	101%	101%	100%	101%	99.8%	102%	120%	93.5%	99.7%	99%	91.7%	91.9%	102%	98.6%	86.5%	> 10 µM
